Data reported in ChEMBL document CHEMBL1201862, “PubChem BioAssay data set” (2004).
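Tested at 5 concentrations; 48 h exposure; 96-well plates; endpoints linearly interpolated, else capped at highest concentration. GI50 is the concentration that inhibits growth by half.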 Activity calls are given as the source filed them. No stated cut-off is given here; in the data, active = GI50 up to about 1.1 µM and inactive = higher.

What was measured:
Assay in all cases: NCI-60 cell line screen, 48 h
LXFL 529 = tested on: LXFL 529
SNB-78 = tested on: SNB-78
DLD-1 = tested on: DLD-1
HOP-18 = tested on: HOP-18
KM-20L2 = tested on: KM-20L2
DMS-114 = tested on: DMS-114
RXF 631 = tested on: RXF 631
XF498 = tested on: XF498
DMS-273 = tested on: DMS-273

| SMILES | GI50 (LXFL 529) | GI50 (SNB-78) | GI50 (DLD-1) | GI50 (HOP-18) | GI50 (KM-20L2) | GI50 (DMS-114) | GI50 (RXF 631) | GI50 (XF498) | GI50 (DMS-273) |
| --- | --- | --- | --- | --- | --- | --- | --- | --- | --- |
| C/C(=N\N(c1ccccc1)c1ccccc1)c1c(O)cc(C)oc1=O | 78.5 µM (inactive) | > 100 µM (inactive) | 76.2 µM (inactive) | > 100 µM (inactive) | > 100 µM (inactive) | – | – | – | – |
| N#CCCc1nc2ccc(Br)cc2c(=O)n1CCO | > 100 µM (inactive) | > 100 µM (inactive) | > 100 µM (inactive) | – | – | > 100 µM (inactive) | > 100 µM (inactive) | 95.7 µM (inactive) | – |
| COc1cccc(-c2cc(O)c3cc(OC)c(OC)cc3n2)c1 | 63.1 µM (inactive) | 29.9 µM (inactive) | 42.3 µM (inactive) | – | 26.6 µM (inactive) | – | – | – | 36.3 µM (inactive) |
| Cc1cccc(C(=O)O)c1C(=O)c1cccc2ccccc12 | > 100 µM (inactive) | > 100 µM (inactive) | > 100 µM (inactive) | > 100 µM (inactive) | 33.5 µM (inactive) | > 100 µM (inactive) | – | – | > 100 µM (inactive) |
| CC(C)Cc1ccc(C(C)/C=C2\CCC(CN3CCCCC3)C2=O)cc1 (stereo not drawn) | 1.91 µM (inactive) | 5.74 µM (inactive) | 2.33 µM (inactive) | 16.6 µM (inactive) | 10.4 µM (inactive) | 2.22 µM (inactive) | – | 6.78 µM (inactive) | 2.86 µM (inactive) |
| C=C1Cc2cc(OC)c(OC)c(OC)c2-c2ccc(SC)c(=O)cc21 | < 0.01 µM (active) | < 0.01 µM (active) | < 0.01 µM (active) | 4.92 µM (inactive) | < 0.01 µM (active) | < 0.01 µM (active) | – | < 0.01 µM (active) | < 0.01 µM (active) |
| Cc1ccc(S(=O)(=O)N[C@H](C(=O)O)c2ccccc2)cc1 | > 100 µM (inactive) | – | > 100 µM (inactive) | > 100 µM (inactive) | > 100 µM (inactive) | – | > 100 µM (inactive) | > 100 µM (inactive) | > 100 µM (inactive) |
| O=[N+]([O-])c1cccc(C2SCc3nc4ccccc4n32)c1 (stereo not drawn) | 55.8 µM (inactive) | > 100 µM (inactive) | 62.8 µM (inactive) | > 100 µM (inactive) | > 100 µM (inactive) | 53.5 µM (inactive) | – | > 10 µM (inactive) | 85.7 µM (inactive) |
| Cc1cc(C(=O)NCCN(C)C)c2nc3ccccc3nc2c1 | 8.3 µM (inactive) | 12.8 µM (inactive) | 4.08 µM (inactive) | > 35.1 µM (inactive) | 3.1 µM (inactive) | 3.19 µM (inactive) | – | – | 3.87 µM (inactive) |
| NC(=O)NC1C(C(N)=O)N(Cc2ccccc2)C(=O)N1Cc1ccccc1 (stereo not drawn) | > 100 µM (inactive) | > 100 µM (inactive) | > 100 µM (inactive) | > 100 µM (inactive) | 46 µM (inactive) | > 100 µM (inactive) | > 100 µM (inactive) | > 100 µM (inactive) | > 100 µM (inactive) |
| CCCCCCCCCCCC(=O)OCC1OC(n2cc(F)c(=O)[nH]c2=O)C(NC(=O)OCc2ccccc2)C(O)C1O (stereo not drawn) | 18.6 µM (inactive) | 28.9 µM (inactive) | – | – | 21.4 µM (inactive) | – | – | – | 19 µM (inactive) |
| O=C1C(c2ccccc2)=C(c2ccccc2)[C@H](c2ccccc2)[C@]1(Cc1nnn(-c2ccc([N+](=O)[O-])cc2)c1N1CCOCC1)c1ccccc1 | 24.4 µM (inactive) | > 37.5 µM (inactive) | > 37.5 µM (inactive) | > 37.5 µM (inactive) | > 37.5 µM (inactive) | > 37.5 µM (inactive) | > 37.5 µM (inactive) | 8.3 µM (inactive) | 24.9 µM (inactive) |
| N#CC1C2CCC3(CC2CCN1C(=O)c1ccccc1)OCCO3 (stereo not drawn) | > 100 µM (inactive) | > 100 µM (inactive) | > 100 µM (inactive) | > 100 µM (inactive) | > 100 µM (inactive) | > 100 µM (inactive) | – | > 100 µM (inactive) | > 100 µM (inactive) |
| CC1=CC(=O)NP(=O)(Oc2ccc(Cl)cc2)N1 (stereo not drawn) | > 100 µM (inactive) | > 100 µM (inactive) | > 100 µM (inactive) | > 100 µM (inactive) | > 100 µM (inactive) | > 100 µM (inactive) | – | > 100 µM (inactive) | > 100 µM (inactive) |
| COc1cc2c(cc1OC)[C@]1(O)C(=O)c3ccc4c(c3O[C@@H]1CO2)C[C@H](C(C)(C)O)O4 | 56.1 µM (inactive) | > 100 µM (inactive) | > 100 µM (inactive) | – | > 100 µM (inactive) | 3.61 µM (inactive) | – | > 100 µM (inactive) | > 100 µM (inactive) |
| O=C(CN(Cc1ccccc1)Cc1ccccc1)N1CCc2c([nH]c3ccccc23)C1c1cccnc1 (stereo not drawn) | 6.67 µM (inactive) | 15.8 µM (inactive) | 6.4 µM (inactive) | 46.5 µM (inactive) | 6.92 µM (inactive) | 4.35 µM (inactive) | – | 13.9 µM (inactive) | 4.74 µM (inactive) |
| N#CC(NNC(=O)Cc1ccccc1)c1ccc([N+](=O)[O-])cc1 (stereo not drawn) | > 100 µM (inactive) | > 100 µM (inactive) | > 100 µM (inactive) | 82.8 µM (inactive) | – | – | – | – | > 100 µM (inactive) |
| CC(Oc1ccc(OCC2CCCCC2)cc1)C(=O)OCC(=O)c1ccc(-c2ccccc2)cc1 (stereo not drawn) | > 100 µM (inactive) | > 100 µM (inactive) | > 100 µM (inactive) | 22.6 µM (inactive) | – | > 100 µM (inactive) | – | > 100 µM (inactive) | > 100 µM (inactive) |
| COCC(=O)CP(=O)(OC)OC | > 100 µM (inactive) | > 100 µM (inactive) | – | – | – | > 100 µM (inactive) | – | > 100 µM (inactive) | > 100 µM (inactive) |
| CC(C)(C)C(=O)O[C@@H]1COC2C(O)COC21 (stereo partly drawn) | > 100 µM (inactive) | > 100 µM (inactive) | > 100 µM (inactive) | > 100 µM (inactive) | – | > 100 µM (inactive) | > 100 µM (inactive) | > 100 µM (inactive) | > 100 µM (inactive) |
| CC(C)C(/C=C/c1ccccc1)=N\NC(=O)N/N=C(/C=C/c1ccccc1)C(C)C | 23.2 µM (inactive) | 28.1 µM (inactive) | 34.8 µM (inactive) | – | 22.5 µM (inactive) | 13 µM (inactive) | – | 26.4 µM (inactive) | 19.8 µM (inactive) |
| Cc1cccc(CC(C)(C)C)c1NC(=O)C(=O)C(C(=O)c1ccc2ccccc2c1)C1OC(=O)c2ccccc21 (stereo not drawn) | 7.01 µM (inactive) | 11.5 µM (inactive) | 14 µM (inactive) | – | – | 10.4 µM (inactive) | – | – | – |
| CC1=C(C(=O)NCc2ccccc2)C(c2ccc([N+](=O)[O-])cc2)C(C(=O)NCc2ccccc2)=C(C)N1 | 36.7 µM (inactive) | 78.7 µM (inactive) | 36.7 µM (inactive) | > 100 µM (inactive) | 22 µM (inactive) | 30.2 µM (inactive) | – | 59 µM (inactive) | 40.6 µM (inactive) |
